Experiments:
[1] = biological target: T1, Tyrosine-protein kinase JAK3 (Homo sapiens, UniProt P52333)
T1 sequence (P52333 whole entry): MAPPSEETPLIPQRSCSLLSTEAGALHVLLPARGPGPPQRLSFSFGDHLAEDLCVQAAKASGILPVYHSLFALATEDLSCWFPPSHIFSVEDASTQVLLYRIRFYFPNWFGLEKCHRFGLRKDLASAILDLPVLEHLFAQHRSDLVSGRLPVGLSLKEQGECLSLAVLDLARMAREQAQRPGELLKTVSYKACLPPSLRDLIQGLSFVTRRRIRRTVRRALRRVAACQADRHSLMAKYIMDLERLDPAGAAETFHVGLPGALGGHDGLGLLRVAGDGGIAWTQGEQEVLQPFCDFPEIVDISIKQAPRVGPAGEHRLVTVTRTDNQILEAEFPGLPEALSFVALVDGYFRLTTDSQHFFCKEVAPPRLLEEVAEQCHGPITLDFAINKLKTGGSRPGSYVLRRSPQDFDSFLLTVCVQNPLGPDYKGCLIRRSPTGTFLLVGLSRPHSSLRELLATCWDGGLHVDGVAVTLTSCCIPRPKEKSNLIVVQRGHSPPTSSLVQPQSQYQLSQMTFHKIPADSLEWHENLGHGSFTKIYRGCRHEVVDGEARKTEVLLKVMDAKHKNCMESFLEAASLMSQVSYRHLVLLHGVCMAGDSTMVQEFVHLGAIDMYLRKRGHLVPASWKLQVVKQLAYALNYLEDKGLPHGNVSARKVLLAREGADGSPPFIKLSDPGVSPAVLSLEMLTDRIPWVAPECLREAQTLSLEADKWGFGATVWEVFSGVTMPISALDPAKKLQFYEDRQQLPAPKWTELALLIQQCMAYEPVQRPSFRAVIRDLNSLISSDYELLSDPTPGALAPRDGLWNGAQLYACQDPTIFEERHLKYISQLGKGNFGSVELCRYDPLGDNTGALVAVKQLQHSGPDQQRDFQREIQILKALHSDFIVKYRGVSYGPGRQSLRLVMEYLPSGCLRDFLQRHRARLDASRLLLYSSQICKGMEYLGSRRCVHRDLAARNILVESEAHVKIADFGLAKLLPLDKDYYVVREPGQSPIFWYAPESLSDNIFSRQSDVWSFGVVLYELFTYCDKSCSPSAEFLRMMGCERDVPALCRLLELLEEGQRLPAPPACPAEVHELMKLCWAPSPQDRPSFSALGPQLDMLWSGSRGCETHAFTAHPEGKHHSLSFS
Description: Inhibition of recombinant human GST-tagged JAK3 expressed in baculovirus expression system using Z'-LYTE Try6 peptide as substrate incubated for 1 hr by Z'-LYTE assay

[2] = in vivo; details: Sprague-Dawley, rat, po, 10 mg/kg
[3] = in vivo; details: Sprague-Dawley, rat, iv, 4 mg/kg
Description: Half life in Sprague-Dawley rat at 4 mg/kg, iv administered as bolus dose

[4] = in vivo; details: Sprague-Dawley, rat, iv, 4 mg/kg; remark: listed apart in the source
[5] = in vivo; details: Sprague-Dawley, rat, po, 10 mg/kg; remark: listed apart in the source
[6] = in vivo; details: Sprague-Dawley, rat, po, 10 mg/kg; remark: listed apart in the source
[7] = in vivo; details: Sprague-Dawley, rat, iv, 4 mg/kg; remark: listed apart in the source
[8] = in vivo; details: Sprague-Dawley, rat, po, 10 mg/kg; remark: listed apart in the source
Description: Half life in Sprague-Dawley rat at 10 mg/kg, po administered through gavage

[9] = in vivo; details: Sprague-Dawley, rat, iv, 4 mg/kg; remark: listed apart in the source
[10] = in vivo; details: Sprague-Dawley, rat, iv, 4 mg/kg; remark: listed apart in the source
[11] = in vivo; details: Sprague-Dawley, rat, po, 10 mg/kg; remark: listed apart in the source

## Cn1c(C(=O)NCCN2CCCC2)cc2c(-c3ccc(NC(=O)[C@@H]4CCCN4C(=O)OC(C)(C)C)cc3)ncnc21
[1]
  IC50: 716 nM

## Cn1c(C(=O)NCCCN2CCOCC2)cc2c(-c3ccc(NC(=O)C(C)(C)C)cc3)ncnc21
[2]
  Cmax: 6140 ng/mL
[3]
  half-life: 2.09 h
[4]
  clearance: 3.3 mL/min/kg
[5]
  bioavailability: 73.6%
[6]
  Tmax: 4 h
[7]
  Cmax: 9730 ng/mL
[8]
  half-life: 2.32 h
[1]
  IC50: 584 nM
[9]
  Vd: 0.612 L/kg
[10]
  AUC(0-t) at 24 h: 19700 ng·h/mL
[11]
  AUC(0-t) at 24 h: 36300 ng·h/mL

## Cn1c(C(=O)NCCCN2CCOCC2)cc2c(-c3ccc(NC(=O)[C@@H]4CCCN4C(=O)OC(C)(C)C)cc3)ncnc21
[1]
  IC50: 507 nM

## Cn1c(C(=O)NCCN2CCCC2)cc2c(-c3ccc(NC(=O)C(C)(C)C)cc3)ncnc21
[1]
  IC50: 953 nM
